Results reported in patent US20220248678A1, “HERBICIDAL COMPOUNDS” (SYNGENTA CROP PROTECTION AG, priority 2019, published 2022).

How the values were obtained:
Assay in all cases: Post-emergence efficacy, glasshouse
Assay type in all cases: in vivo
Settings in all cases: after 13 days, 100=total damage to plant, 0=no damage to plant
[1] = system: Euphorbia heterophylla (EPHHL)
Experimental: (§1) Seeds of a variety of test species were shown in standard soil in pots. After cultivation for 14 days (post-emergence) under controlled conditions in a glasshouse (at 24/16° C., day/night; 14 hours light; 65% humidity), the plants were sprayed with an aqueous spray solution derived from the dissolution of the technical active ingredient for each of compounds 1 to 26 from Table A above, in a small amount of acetone and a special solvent and emulsifier mixture referred to as IF50 (11.12% Emulsogen EL360 TM+44.44% N-methylpyrrolidone+44.44% Dowanol DPM glycol ether), to create a 50 g/I solution which was then diluted to required concentration using 0.25% or 1% Empicol ESC70 (Sodium lauryl ether sulphate)+1% ammonium sulphate in water as diluent. These spray test compositions are described as composition numbers C1 to C26, with the numerical value corresponding to the compound number from Table A.
(§2) The test plants were then grown in a glasshouse under controlled conditions (at 24/16° C., day/night; 14 hours light; 65% humidity) and watered twice daily. After 13 days the test was evaluated (100=total damage to plant; 0=no damage to plant).
(§3) Ipomoea hederacea (IPOHE), Euphorbia heterophylla (EPHHL), Chenopodium album (CHEAL), Amaranthus palmeri (AMAPA), Lolium perenne (LOLPE), Digitaria sanguinalis (DIGSA), Eleusine indica (ELEIN), Echinochloa crus-galli (ECHCG), Setaria faberi (SETFA)

[2] = system: Amaranthus palmeri (AMAPA)
Experimental: as §1, §2, §3

Eleusine indica (ELEIN) = system: Eleusine indica (ELEIN)
Experimental: as §1, §2, §3

[3] = system: Digitaria sanguinalis (DIGSA)
Experimental: as §1, §2, §3

[4] = system: Ipomoea hederacea (IPOHE)
Experimental: as §1, §2, §3

[5] = system: Chenopodium album (CHEAL)
Experimental: as §1, §2, §3

[6] = system: Echinochloa crus-galli (ECHCG)
Experimental: as §1, §2, §3

Lolium perenne (LOLPE) = system: Lolium perenne (LOLPE)
Experimental: as §1, §2, §3

Setaria faberi (SETFA) = system: Setaria faberi (SETFA)
Experimental: as §1, §2, §3

Structure (SMILES): COP(=O)([O-])c1c[n+](C)nc2cc(C)ccc12 [Composition C14]
- Control of weed species EPHHL ([1]; 1000 g/Ha): 100
- Control of weed species AMAPA ([2]; 1000 g/Ha): 100
- Control of weed species ELEIN (Eleusine indica (ELEIN); 1000 g/Ha): 100
- Control of weed species DIGSA ([3]; 1000 g/Ha): 80
- Control of weed species IPOHE ([4]; 1000 g/Ha): 100
- Control of weed species CHEAL ([5]; 1000 g/Ha): 100
- Control of weed species ECHCG ([6]; 1000 g/Ha): 70
- Control of weed species LOLPE (Lolium perenne (LOLPE); 1000 g/Ha): 60
- Control of weed species SETFA (Setaria faberi (SETFA); 1000 g/Ha): 90

Structure (SMILES): COP(=O)([O-])c1c[n+](C)nc2c(C)cccc12 [Composition C15]
- Control of weed species EPHHL ([1]; 1000 g/Ha): 100
- Control of weed species AMAPA ([2]; 1000 g/Ha): 40
- Control of weed species ELEIN (Eleusine indica (ELEIN); 1000 g/Ha): 80
- Control of weed species DIGSA ([3]; 1000 g/Ha): 70
- Control of weed species IPOHE ([4]; 1000 g/Ha): 20
- Control of weed species CHEAL ([5]; 1000 g/Ha): 50
- Control of weed species ECHCG ([6]; 1000 g/Ha): 50
- Control of weed species LOLPE (Lolium perenne (LOLPE); 1000 g/Ha): 20
- Control of weed species SETFA (Setaria faberi (SETFA); 1000 g/Ha): 50

Structure (SMILES): COc1ccc2n[n+](C)cc(P(=O)([O-])OC)c2c1 [Composition C16]
- Control of weed species EPHHL ([1]; 1000 g/Ha): 90
- Control of weed species AMAPA ([2]; 1000 g/Ha): 100
- Control of weed species ELEIN (Eleusine indica (ELEIN); 1000 g/Ha): 100
- Control of weed species DIGSA ([3]; 1000 g/Ha): 80
- Control of weed species IPOHE ([4]; 1000 g/Ha): 70
- Control of weed species CHEAL ([5]; 1000 g/Ha): 90
- Control of weed species ECHCG ([6]; 1000 g/Ha): 90
- Control of weed species LOLPE (Lolium perenne (LOLPE); 1000 g/Ha): 50
- Control of weed species SETFA (Setaria faberi (SETFA); 1000 g/Ha): 80

Structure (SMILES): COc1ccc2c(P(=O)([O-])OC)c[n+](C)nc2c1 [Composition C17]
- Control of weed species EPHHL ([1]; 1000 g/Ha): 20
- Control of weed species AMAPA ([2]; 1000 g/Ha): 10
- Control of weed species ELEIN (Eleusine indica (ELEIN); 1000 g/Ha): 10
- Control of weed species DIGSA ([3]; 1000 g/Ha): 10
- Control of weed species IPOHE ([4]; 1000 g/Ha): 10
- Control of weed species CHEAL ([5]; 1000 g/Ha): 10
- Control of weed species ECHCG ([6]; 1000 g/Ha): 10
- Control of weed species LOLPE (Lolium perenne (LOLPE); 1000 g/Ha): 0
- Control of weed species SETFA (Setaria faberi (SETFA); 1000 g/Ha): 10

Structure (SMILES): COc1cccc2c(P(=O)([O-])OC)c[n+](C)nc12 [Composition C18]
- Control of weed species EPHHL ([1]; 1000 g/Ha): 100
- Control of weed species AMAPA ([2]; 1000 g/Ha): 100
- Control of weed species ELEIN (Eleusine indica (ELEIN); 1000 g/Ha): 100
- Control of weed species DIGSA ([3]; 1000 g/Ha): 100
- Control of weed species IPOHE ([4]; 1000 g/Ha): 80
- Control of weed species CHEAL ([5]; 1000 g/Ha): 80
- Control of weed species ECHCG ([6]; 1000 g/Ha): 100
- Control of weed species LOLPE (Lolium perenne (LOLPE); 1000 g/Ha): 80
- Control of weed species SETFA (Setaria faberi (SETFA); 1000 g/Ha): 100

Structure (SMILES): COP(=O)([O-])c1c[n+](C)nc2ccc(C(F)(F)F)cc12 [Composition C19]
- Control of weed species EPHHL ([1]; 500 g/Ha): 0
- Control of weed species AMAPA ([2]; 500 g/Ha): 10
- Control of weed species ELEIN (Eleusine indica (ELEIN); 500 g/Ha): 10
- Control of weed species DIGSA ([3]; 500 g/Ha): 10
- Control of weed species IPOHE ([4]; 500 g/Ha): 0
- Control of weed species CHEAL ([5]; 500 g/Ha): 10
- Control of weed species ECHCG ([6]; 500 g/Ha): 10
- Control of weed species LOLPE (Lolium perenne (LOLPE); 500 g/Ha): 10
- Control of weed species SETFA (Setaria faberi (SETFA); 500 g/Ha): 10

Structure (SMILES): COP(=O)([O-])c1c[n+](C)nc2cc(C(F)(F)F)ccc12 [Composition C20]
- Control of weed species EPHHL ([1]; 1000 g/Ha): 30
- Control of weed species AMAPA ([2]; 1000 g/Ha): 40
- Control of weed species ELEIN (Eleusine indica (ELEIN); 1000 g/Ha): 10
- Control of weed species DIGSA ([3]; 1000 g/Ha): 20
- Control of weed species IPOHE ([4]; 1000 g/Ha): 60
- Control of weed species CHEAL ([5]; 1000 g/Ha): 40
- Control of weed species ECHCG ([6]; 1000 g/Ha): 10
- Control of weed species LOLPE (Lolium perenne (LOLPE); 1000 g/Ha): 10
- Control of weed species SETFA (Setaria faberi (SETFA); 1000 g/Ha): 10

Structure (SMILES): CCCOP(=O)([O-])c1c[n+](C)nc2ccccc12 [Composition C21]
- Control of weed species EPHHL ([1]; 500 g/Ha): 100
- Control of weed species AMAPA ([2]; 500 g/Ha): 100
- Control of weed species ELEIN (Eleusine indica (ELEIN); 500 g/Ha): 100
- Control of weed species DIGSA ([3]; 500 g/Ha): 100
- Control of weed species IPOHE ([4]; 500 g/Ha): 100
- Control of weed species CHEAL ([5]; 500 g/Ha): 100
- Control of weed species ECHCG ([6]; 500 g/Ha): 70
- Control of weed species LOLPE (Lolium perenne (LOLPE); 500 g/Ha): 70
- Control of weed species SETFA (Setaria faberi (SETFA); 500 g/Ha): 100

Structure (SMILES): C[n+]1cc(P(=O)([O-])OCc2ccccc2)c2ccccc2n1 [Composition C22]
- Control of weed species EPHHL ([1]; 500 g/Ha): 60
- Control of weed species AMAPA ([2]; 500 g/Ha): 10
- Control of weed species ELEIN (Eleusine indica (ELEIN); 500 g/Ha): 60
- Control of weed species DIGSA ([3]; 500 g/Ha): 60
- Control of weed species IPOHE ([4]; 500 g/Ha): 20
- Control of weed species CHEAL ([5]; 500 g/Ha): 20
- Control of weed species ECHCG ([6]; 500 g/Ha): 20
- Control of weed species LOLPE (Lolium perenne (LOLPE); 500 g/Ha): 10
- Control of weed species SETFA (Setaria faberi (SETFA); 500 g/Ha): 30

Structure (SMILES): C[n+]1cc(P(=O)([O-])OCc2ccc(F)cc2)c2ccccc2n1 [Composition C23]
- Control of weed species EPHHL ([1]; 125 g/Ha): 40
- Control of weed species AMAPA ([2]; 125 g/Ha): 20
- Control of weed species ELEIN (Eleusine indica (ELEIN); 125 g/Ha): 40
- Control of weed species DIGSA ([3]; 125 g/Ha): 60
- Control of weed species IPOHE ([4]; 125 g/Ha): 10
- Control of weed species CHEAL ([5]; 125 g/Ha): 10
- Control of weed species ECHCG ([6]; 125 g/Ha): 30
- Control of weed species LOLPE (Lolium perenne (LOLPE); 125 g/Ha): 10
- Control of weed species SETFA (Setaria faberi (SETFA); 125 g/Ha): 30

Structure (SMILES): C[n+]1cc(P(=O)([O-])OCC2CCCO2)c2ccccc2n1 (stereo not drawn) [Composition C25]
- Control of weed species EPHHL ([1]; 1000 g/Ha): 80
- Control of weed species AMAPA ([2]; 1000 g/Ha): 100
- Control of weed species ELEIN (Eleusine indica (ELEIN); 1000 g/Ha): 100
- Control of weed species DIGSA ([3]; 1000 g/Ha): 50
- Control of weed species IPOHE ([4]; 1000 g/Ha): 60
- Control of weed species CHEAL ([5]; 1000 g/Ha): 90
- Control of weed species ECHCG ([6]; 1000 g/Ha): 90
- Control of weed species LOLPE (Lolium perenne (LOLPE); 1000 g/Ha): 60
- Control of weed species SETFA (Setaria faberi (SETFA); 1000 g/Ha): 80

Structure (SMILES): CC(C)COP(=O)([O-])c1c[n+](C)nc2ccccc12 [Composition C26]
- Control of weed species EPHHL ([1]; 1000 g/Ha): 100
- Control of weed species AMAPA ([2]; 1000 g/Ha): 100
- Control of weed species ELEIN (Eleusine indica (ELEIN); 1000 g/Ha): 90
- Control of weed species DIGSA ([3]; 1000 g/Ha): 60
- Control of weed species IPOHE ([4]; 1000 g/Ha): 60
- Control of weed species CHEAL ([5]; 1000 g/Ha): 90
- Control of weed species ECHCG ([6]; 1000 g/Ha): 60
- Control of weed species LOLPE (Lolium perenne (LOLPE); 1000 g/Ha): 40
- Control of weed species SETFA (Setaria faberi (SETFA); 1000 g/Ha): 90

Structure (SMILES): COP(=O)([O-])c1c[n+](C)nc2ccccc12 [Composition C27]
- Control of weed species EPHHL ([1]; 500 g/Ha): 100
- Control of weed species AMAPA ([2]; 500 g/Ha): 100
- Control of weed species ELEIN (Eleusine indica (ELEIN); 500 g/Ha): 100
- Control of weed species DIGSA ([3]; 500 g/Ha): 100
- Control of weed species IPOHE ([4]; 500 g/Ha): 90
- Control of weed species CHEAL ([5]; 500 g/Ha): 100
- Control of weed species ECHCG ([6]; 500 g/Ha): 100
- Control of weed species LOLPE (Lolium perenne (LOLPE); 500 g/Ha): 90
- Control of weed species SETFA (Setaria faberi (SETFA); 500 g/Ha): 100
